Measured values from US9113629B2, “4-amino-6-(4-substituted-phenyl)-picolinates and 6-amino-2-(4-substituted-phenyl)-pyrimidine-4-carboxylates and their use as herbicides” (DOW AGROSCIENCES LLC, priority 2013, dated 2015).
Like-named read-outs stand apart in the source and are kept apart here.

Assays:
[1] = test system: Key Broadleaf Weed and Crop Species; assay: Post-emergent Test II herbicidal activity (Table 5); type: in vivo; conditions: post-emergence, 336 h, 14 days after application; for pest or weed control at 70 g/ha: application rate 70 g ai/ha; for pest or weed control at 140 g/ha: application rate 140 g ai/ha
Summary of the method: (§1)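 Foliar application at 187 L/ha to greenhouse-grown seedlings (first or second true leaf); subirrigation thereafter. Visual 0–100% injury at 14 d relative to untreated plants.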

[2] = test system: Key Grass and Sedge Weeds as well as Grass Crops; assay: Post-emergent Test II herbicidal activity (Table 6); type: in vivo; conditions: post-emergence, 336 h; for pest or weed control at 70 g/ha: 70 g ai/ha; for pest or weed control at 140 g/ha: 140 g ai/ha
Summary of the method: as §1

[3] = ABUTH: velvetleaf (Abutilon theophrasti), read-out: Visual Growth Reduction (%) 14 Days After Application, ABUTH
[4] = AMARE: redroot pigweed (Amaranthus retroflexus), read-out: Visual Growth Reduction (%) 14 Days After Application, AMARE
[5] = BRSNN: oilseed-rape, canola (Brassica napus), read-out: Visual Growth Reduction (%) 14 Days After Application, BRSNN
[6] = CHEAL: lambsquarters (Chenopodium album), read-out: Visual Growth Reduction (%) 14 Days After Application, CHEAL
[7] = EPHHL: wild poinsettia (Euphorbia heterophylla), read-out: Visual Growth Reduction (%) 14 Days After Application, EPHHL
[8] = HELAN: sunflower (Helianthus annuus), read-out: Visual Growth Reduction (%) 14 Days After Application, HELAN
[9] = VIOTR: wild pansy (Viola tricolor), read-out: Visual Growth Reduction (%) 14 Days After Application, VIOTR
[10] = CYPES: yellow nutsedge (Cyperus esculentus), read-out: Visual Growth Reduction (%) 14 Days After Application, CYPES
[11] = DIGSA: crabgrass (Digitaria sanguinalis), read-out: Visual Growth Reduction (%) 14 Days After Application, DIGSA
[12] = ECHCG: barnyardgrass (Echinochloa crus-galli), read-out: Visual Growth Reduction (%) 14 Days After Application, ECHCG
[13] = ORYSA: rice (Oryza sativa), crop, read-out: Visual Growth Reduction (%) 14 Days After Application, ORYSA
[14] = SETFA: giant foxtail (Setaria faberi), read-out: Visual Growth Reduction (%) 14 Days After Application, SETFA
[15] = SORVU: grain sorghum (Sorghum vulgare), read-out: Visual Growth Reduction (%) 14 Days After Application, SORVU
[16] = TRZSS (wheat, Triticum aestivum), crop, read-out: Visual Growth Reduction (%) 14 Days After Application, TRZSS
[17] = ZEAMX: maize, corn (Zea mays), crop, read-out: Visual Growth Reduction (%) 14 Days After Application, ZEAMX

SMILES: C#Cc1ccc(-c2nc(C(=O)OC)c(Cl)c(N)c2F)cc1 [Compound 7, methyl 4-amino-3-chloro-6-(4-ethynylphenyl)-5-fluoropicolinate]
- pest or weed control at 70 g/ha [1, 3]: 95 to 100%
- pest or weed control at 140 g/ha [1, 3]: 95 to 100%
- pest or weed control at 70 g/ha [1, 4]: 95 to 100%
- pest or weed control at 140 g/ha [1, 4]: 95 to 100%
- pest or weed control at 70 g/ha [1, 5]: 85 to 94%
- pest or weed control at 140 g/ha [1, 5]: 85 to 94%
- pest or weed control at 70 g/ha [1, 6]: 95 to 100%
- pest or weed control at 140 g/ha [1, 6]: 95 to 100%
- pest or weed control at 70 g/ha [1, 7]: 85 to 94%
- pest or weed control at 140 g/ha [1, 7]: 95 to 100%
- pest or weed control at 70 g/ha [1, 8]: 85 to 94%
- pest or weed control at 140 g/ha [1, 8]: 95 to 100%
- pest or weed control at 70 g/ha [1, 9]: 0 to 29%
- pest or weed control at 140 g/ha [1, 9]: 0 to 29%
- pest or weed control at 70 g/ha [2, 10]: 75 to 84%
- pest or weed control at 140 g/ha [2, 10]: 85 to 94%
- pest or weed control at 70 g/ha [2, 11]: 75 to 84%
- pest or weed control at 140 g/ha [2, 11]: 85 to 94%
- pest or weed control at 70 g/ha [2, 12]: 75 to 84%
- pest or weed control at 140 g/ha [2, 12]: 95 to 100%
- pest or weed control at 70 g/ha [2, 13]: 0 to 29%
- pest or weed control at 140 g/ha [2, 13]: 0 to 29%
- pest or weed control at 70 g/ha [2, 14]: 60 to 74%
- pest or weed control at 140 g/ha [2, 14]: 95 to 100%
- pest or weed control at 70 g/ha [2, 15]: 85 to 94%
- pest or weed control at 140 g/ha [2, 15]: 85 to 94%
- pest or weed control at 70 g/ha [2, 16]: 30 to 44%
- pest or weed control at 140 g/ha [2, 16]: 45 to 59%
- pest or weed control at 70 g/ha [2, 17]: 95 to 100%
- pest or weed control at 140 g/ha [2, 17]: 95 to 100%
- melting point: 127 to 130 °C
